From patent publication US11858921B2, “Uracil derivatives as TRPA1 inhibitors” (Boehringer Ingelheim International GmbH, priority 2021, dated 2024)

Tests used:
[1] = target: T1, human TRPA1 ion channel (Homo sapiens, UniProt O75762); assay: Assay A: TRPA1 assay (FLIPR calcium, AITC agonism); assay type: cell-based; conditions: read-out: hTRPA1 IC50
T1 construct: host or cells: HEK293
Procedure: A human HEK293 cell line over-expressing the human TRPA1 ion channel (Perkin Elmer, Product No. AX-004-PCL) is used as a test system for compound efficacy and potency. Compound activity is determined by measuring the effect of compounds on intracellular calcium concentration induced by AITC (Allylisothiocyanat) agonism in a FLIPRtetra system (Molecular Devices).
The cells are obtained as frozen cells in cryo-vials and stored until use at −150° C.
Cells are grown in culture medium (MEM/EBSS medium with 10% FCS and 0.4 mg/ML Geneticin). […] For sub-culturing cells are detached from flasks by Versene. At the day before the assay, cells are detached, washed twice with medium (MEM/EBSS medium with 10% FCS) and 20000 cells in 20 μl/well are seeded to Poly D-Lysin biocoated 384-well plates (black, clear bottom, Cat. 356697) from Corning. Plates are incubated for 24 hours at 37° C./5% CO2 before use in the assay.
The test compounds are dissolved in 100% DMSO at a concentration of 10 mM and in a first step diluted in DMSO to a concentration of 5 mM, followed by serial dilution steps in 100% DMSO. Dilution factor and number of dilution steps may vary according to needs. Typically 8 different concentrations by 1:5 dilutions are prepared, further intermediate dilutions (1:20) of the substances are carried out with HBSS/HEPES buffer (1×HEPES, Cat. 14065 from Gibco, 20 mM HEPES, Cat. 83264 from SIGMA, 0.1% BSA Cat. 11926 from Invitrogen, pH 7.4
At the assay day cells are washed 3× with assay puffer, 20 μL buffer remaining in the wells after washing. 10 μL Ca6 kit (Cat. R8191 MolecularDevices) loading buffer in HBSS/HEPES is added to the cells and the plates are incubated with lid for 120 minutes at 37°/5% CO2. 10 μL of compound or controls in HBSS/HEPES buffer/5% DMSO from the intermediate dilution plate are carefully added to the wells. […] Finally 10 μL of the agonist AITC 50 μM dissolved in HBSS/HEPES buffer/0.05% DMSO (final concentration 10 μM) is added to the wells followed by an additional read on the FLIPRtetra device for 10 minutes. The area under the signal curve (AUC) after AITC addition is used for IC50/% inhibition calculations Data evaluation and calculation:
Each assay microtiter plate contains wells with vehicle (1% DMSO) controls instead of compound as controls for AITC induced luminescence (100% CTL; high controls) and wells with vehicle controls without AITC as controls for non-specific changes in luminescence (0% CTL; low controls).
The analysis of the data is performed by the calculation of the area under signal curve of the individual wells. Based on this values the % value for the measurement of each substance concentration is calculated (AUC(sample)−AUC(low))*100/(AUC(high)−AUC(low)) using MegaLab software (in house development). The IC50 values are calculated from the % control values using MegaLab software. Calculation: [y=(a−d)/(1+(x/c)^b)+d], a=low value, d=high value; x=conc M; c=IC50 M; b=hill; y=% ctrl

[2] = Assay B: Microsomal clearance; assay type: in vitro ADME, human; conditions: pooled liver microsomes 1 mg/ml, test compound 1 μM, 37° C., NADPH
Procedure: Assay B: Microsomal Clearance:
The metabolic degradation of the test compound is assayed at 37° C. with pooled liver microsomes. The final incubation volume of 100 μl per time point contains TRIS buffer pH 7.6 at RT (0.1 M), magnesium chloride (5 mM), microsomal protein (1 mg/ml) and the test compound at a final concentration of 1 μM.
Following a short preincubation period at 37° C., the reactions are initiated by addition of beta-nicotinamide adenine dinucleotide phosphate, reduced form (NADPH, 1 mM) and terminated by transferring an aliquot into solvent after different time points (0, 5, 15, 30, 60 min). Additionally, the NADPH-independent degradation is monitored in incubations without NADPH, terminated at the last time point. The [%] remaining test compound after NADPH independent incubation is reflected by the parameter c(control) (metabolic stability). The quenched incubations are pelleted by centrifugation (10000 g, 5 min).
An aliquot of the supernatant is assayed by LC-MS/MS for the amount of parent compound. The half-life (t½ INVITRO) is determined by the slope of the semilogarithmic plot of the concentration-time profile.
The intrinsic clearance (CL_[…]) is calculated by considering the amount of protein in the incubation: CL_[…] [μl/min/mg protein]=(Ln 2/(half-life [min]*protein content [mg/ml]))*1000 CL_[…]_INVIVO [ml/min/kg]=(CL_[…] [μL/min/mg protein]×MPPGL [mg protein/g liver]×liver factor [g/kg bodyweight])/1000 Qh[%]=CL[ml/min/kg]/hepatic blood flow [ml/min/kg])
(§1) Hepatocellularity, human: 120×10e6 cells/g liver
(§2) Liver factor, human: 25.7 g/kg bodyweight
(§3) Blood flow, human: 21 ml/(min×kg)

[3] = Assay C: Hepatocyte clearance; assay type: in vitro ADME, human; conditions: hepatocyte suspension, 5% species serum, test compound 1 μM, up to 6 h
Procedure: Assay C: Hepatocyte Clearance
The metabolic degradation of the test compound is assayed in a hepatocyte suspension. Hepatocytes (cryopreserved) are incubated in Dulbecco's modified eagle medium (supplemented with 3.5 μg glucagon/500 mL, 2.5 mg insulin/500 mL and 3.75 mg/500 mL hydrocortison) containing 5% species serum.
The cells are incubated for six hours (incubator, orbital shaker) and samples (25 μl) are taken at 0, 0.5, 1, 2, 4 and 6 hours. Samples are transferred into acetonitrile and pelleted by centrifugation (5 min). The supernatant is transferred to a new 96-deepwell plate, evaporated under nitrogen and resuspended.
Decline of parent compound is analyzed by HPLC-MS/MS
CLint is calculated as follows CL_[…]=Dose/AUC=(CO/CD)/(AUD+clast/k)×1000/60. C0: initial concentration in the incubation [μM], CD: cell density of vital cells [10e6 cells/mL], AUD: area under the data [μM×h], clast: concentration of last data point [μM], k: slope of the regression line for parent decline [h−1].
The calculated in vitro hepatic intrinsic clearance can be scaled up to the intrinsic in vivo hepatic Clearance and used to predict hepatic in vivo blood clearance (CL) by the use of a liver model (well stirred model). CL_[…]_INVIVO [ml/min/kg]=(CL_[…] [μL/min/10e6 cells]×hepato-cellularity [10e6 cells/g liver]×liver factor [g/kg bodyweight])/1000 CL[ml/min/kg]=CL_[…]_INVIVO [ml/min/kg]×hepatic blood flow [ml/min/kg]/(CL_[…]_INVIVO [ml/min/kg]+hepatic blood flow [ml/min/kg]) Qh[%]=CL[ml/min/kg]/hepatic blood flow [ml/min/kg])
as §1, §2, §3

T1 sequence (O75762 whole entry): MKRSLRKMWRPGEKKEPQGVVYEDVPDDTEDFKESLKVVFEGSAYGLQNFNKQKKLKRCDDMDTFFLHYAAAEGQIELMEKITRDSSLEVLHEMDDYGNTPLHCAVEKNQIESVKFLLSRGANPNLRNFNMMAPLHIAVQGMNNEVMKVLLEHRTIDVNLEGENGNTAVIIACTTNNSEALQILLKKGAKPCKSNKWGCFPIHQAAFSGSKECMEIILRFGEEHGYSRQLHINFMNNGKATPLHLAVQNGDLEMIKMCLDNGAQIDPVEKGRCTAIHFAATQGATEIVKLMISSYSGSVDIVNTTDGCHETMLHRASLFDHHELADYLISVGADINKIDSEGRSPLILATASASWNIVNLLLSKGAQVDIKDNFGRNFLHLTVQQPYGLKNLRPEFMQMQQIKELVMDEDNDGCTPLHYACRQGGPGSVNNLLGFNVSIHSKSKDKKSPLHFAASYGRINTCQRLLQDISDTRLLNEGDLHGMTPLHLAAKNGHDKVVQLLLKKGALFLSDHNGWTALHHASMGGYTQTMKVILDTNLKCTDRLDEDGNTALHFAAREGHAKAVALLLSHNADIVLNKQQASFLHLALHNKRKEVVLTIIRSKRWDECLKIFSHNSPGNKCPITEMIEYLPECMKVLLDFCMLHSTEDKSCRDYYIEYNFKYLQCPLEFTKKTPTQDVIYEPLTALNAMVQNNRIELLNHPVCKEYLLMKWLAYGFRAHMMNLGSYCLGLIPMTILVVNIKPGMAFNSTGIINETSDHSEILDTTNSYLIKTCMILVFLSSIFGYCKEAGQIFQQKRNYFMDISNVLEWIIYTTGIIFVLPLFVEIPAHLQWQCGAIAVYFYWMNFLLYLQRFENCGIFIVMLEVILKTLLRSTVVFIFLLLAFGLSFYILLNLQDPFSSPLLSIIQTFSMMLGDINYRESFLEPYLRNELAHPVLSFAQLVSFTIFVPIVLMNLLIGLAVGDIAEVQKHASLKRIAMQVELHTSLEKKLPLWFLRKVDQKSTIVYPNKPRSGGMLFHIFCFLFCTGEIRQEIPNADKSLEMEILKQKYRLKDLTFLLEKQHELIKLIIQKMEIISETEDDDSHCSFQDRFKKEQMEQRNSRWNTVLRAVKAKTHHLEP

SMILES | IC50 [1] [nM] | human LM [% Qh] [2] [% Qh] | human Hepatocytes [% Qh] [3] [% Qh]
Cn1c(=O)c(C(N)=O)cn(Cc2nc(C[C@H](O)c3ccc(Cl)cc3)no2)c1=O [Example 1, 1-({3-[(2S)-2-(4-chlorophenyl)-2-hydroxyethyl]-1,2,4-oxadiazol-5-yl}methyl)-3-methyl-2,4-dioxo-1,2,3,4-tetrahydropyrimidine-5-carboxamide] | 38 | <23 | 15
Cn1c(=O)c(C(N)=O)cn(Cc2nc(C[C@H](O)c3cc4ccccc4s3)no2)c1=O [Example 2] | 6 | <23 | 24
Cn1c(=O)c(C(N)=O)cn(Cc2nc(C[C@H](O)c3cc4ccc(F)cc4s3)no2)c1=O [Example 3] | 8 | 43 | 17
Cn1c(=O)c(C(N)=O)cn(Cc2nc(C[C@H](O)c3cc4cc(Cl)ccc4o3)no2)c1=O [Example 4] | 15 | <23 | 21
Cn1c(=O)c(C(N)=O)cn(Cc2nc(C[C@H](O)c3cc4cc(F)ccc4o3)no2)c1=O [Example 5] | 33 | <23 | 15
Cn1c(=O)c(C(N)=O)cn(Cc2nc(C[C@H](O)c3ccc(I)cc3)no2)c1=O [Example 6] | 57 | 24 | 17
Cc1ccc([C@@H](O)Cc2noc(Cn3cc(C(N)=O)c(=O)n(C)c3=O)n2)cc1 [Example 7] | 84 | <23 | 8
